Like-named read-outs stand apart in the source and are kept apart here.

In assay [1] the test system is Fusarium avenaceum. The experiment in a line: Threshold concentration test in case of Fusarium avenaceum (infested soil, garden peas). The settings on record: for number of sound peas: 20 grains per dish, 18 days at 20-24° C.; for root evaluation (1-4): 18 days. It counts as in vivo. As for the experimental part: Threshold concentration test in case of Fusarium avenaceum
A 20% pulverulent active agent of the type further identified in the table below was mixed in uniform manner with a soil which had been heavily infested with Fusarium avenaceum. The thus treated soil was then placed into clay dishes of a capacity of 0.5 l of earth. Each dish was seeded without any intervening time with 20 grains of garden peas (Pisum sativum L. convar. medullare Alef.) of the type "Wunder von Kelvedon". After a cultivation time of 18 days at 20° to 24° C. in a hot house the number of sound peas was determined and a root evaluation was carried out. The active agents employed, the amounts and results appear from the following table.
(§1) The root evaluation was carried out on a scale from 1 to 4 as follows: […]

Assay [2] relates to Tilletia caries. The experiment in a line: Treatment of oat seeds infested with Tilletia caries (spore germination). In kind it is in vivo.
For assay [3], the system named is Helminthosporium gram. The note with it: about 5 weeks.
Procedure: Treatment of barley seeds infested with Helminthosporium gram
After emergence, the plants were subjected to illumination for 12 hours per day. After about 5 weeks the infested plants were counted and the total number of plants for each test were also counted. The active agents tested were used as pulverulent compositions.
Assay [4] concerns Pythium ultimum. The experiment in a line: Threshold concentration test for use of the compounds against Pythium ultimum (infested soil, garden peas). In kind it is in vivo. Set-up: key to root evaluation (1-4): 4: white roots without fungous necrosis; 3: white roots, minor fungous necrosis; 2: brown roots, already more pronounced fungous necrosis; 1: heavy fungous necrosis, roots rotted. The settings on record: for root evaluation (1-4): 3 weeks; for number of sound peas: 20 grains per dish, 3 weeks at 20-24° C. Here is the method:
Threshold concentration test for use of the compounds against Pythium ultimum
A 20% concentration of certain pulverulent active agents as listed below were mixed in uniform manner into a soil which had been heavily infested by Pythium ultimum. The thus treated soil was then placed into clay dishes of a capacity of 0.5 l earth. Without any intermediate time lapse 20 grain of garden peas (Pisum sativum L. convar. medullare Alef.) of the type "Wunder von Kelvedon" were then seeded into each of the clay dishes. After a cultivation period of three weeks at 20° to 24° C. in a hothouse the number of sound peas was determined and a root evaluation was carried out. The active agents amounts and results appear from the following table.
as §1

Consider `CC(C)[S+]([O-])c1nnc(C#N)s1` (centres unmarked) [5-isopropylsulfinyl-1,3,4-thiadiazole-2-carbonitrile], for which the “number of sound peas” value is recorded as 18 in assay [1] (25 mg/l soil); 19 in assay [1] (50 mg/l soil); 18 in assay [1] (100 mg/l soil); 17 in assay [4] (20 mg/l soil); 17 in assay [4] (40 mg/l soil); 19 in assay [4] (80 mg/l soil). The “root evaluation (1-4)” value in assay [1] (25 mg/l soil) came to 4; in assay [1] (50 mg/l soil), 4; in assay [1] (100 mg/l soil) it was 4; in assay [4] (20 mg/l soil), 3; in assay [4] (40 mg/l soil), 4; in assay [4] (80 mg/l soil), 4. For the same compound, the “% activity” value in assay [2] (20 g active agent per 100 kg) is on record as 87%; in assay [2] (50 g active agent per 100 kg), 100%; in assay [3] (50 g active agent per 100 kg), 93%.

Consider `CCS(=O)(=O)c1nnc(C(=O)N2CCC2)s1` [5-ethylsulfonyl-1,3,4-thiadiazole-2-carboxylic acid-N,N-trimethyleneamide], for which the “root evaluation (1-4)” value in assay [4] (20 mg/l soil), in assay [4] (40 mg/l soil) and in assay [4] (80 mg/l soil) was 4 each time. Also, the “number of sound peas” value in assay [4] (20 mg/l soil) is 20; in assay [4] (40 mg/l soil) it was 19; in assay [4] (80 mg/l soil) it was 20.

For `CCCC[S+]([O-])c1nnc(C#N)s1` (centres unmarked) [5-butylsulfinyl-1,3,4-thiadiazole-2-carbonitrile], the “number of sound peas” value was found to be 19 in assay [1] (25 mg/l soil); 19 in assay [1] (50 mg/l soil); 19 in assay [1] (100 mg/l soil); 18 in assay [4] (20 mg/l soil); 18 in assay [4] (40 mg/l soil); 20 in assay [4] (80 mg/l soil). Also, the “root evaluation (1-4)” value in assay [1] (25 mg/l soil), in assay [1] (50 mg/l soil), in assay [1] (100 mg/l soil), in assay [4] (20 mg/l soil), in assay [4] (40 mg/l soil) and in assay [4] (80 mg/l soil) was 4 each time. Besides, in assay [2] (50 g active agent per 100 kg), the “% activity” value was 100%.

On to `CCCS(=O)(=O)c1nnc(C(=O)NCC)s1` [5-propylsulfonyl-1,3,4-thiadiazole-2-carboxylic acid-ethylamide], for which the results for the “% activity” value in assay [2] (10 g active agent per 100 kg), in assay [2] (20 g active agent per 100 kg) and in assay [2] (50 g active agent per 100 kg) were 99.3%, 99.8% and 100%, respectively. Further, the “root evaluation (1-4)” value is listed as 3 in assay [4] (20 mg/l soil), 4 in assay [4] (40 mg/l soil) and 4 in assay [4] (80 mg/l soil). Moreover, the “number of sound peas” value in assay [4] (20 mg/l soil), in assay [4] (40 mg/l soil) and in assay [4] (80 mg/l soil) was 14 throughout.

Consider `CCCC[S+]([O-])c1nnc(C(=O)N(C)C)s1` (centres unmarked) [5-butylsulfinyl-1,3,4-thiadiazole-2-carboxylic acid-dimethylamide], for which the “% activity” value in assay [3] (50 g active agent per 100 kg) amounted to 100%.

In the case of `C[S+]([O-])c1nnc(C#N)s1` (centres unmarked) [5-methylsulfinyl-1,3,4-thiadiazole-2-carbonitrile], the “number of sound peas” value was determined as 20 in assay [1] (25 mg/l soil); 18 in assay [1] (50 mg/l soil); 19 in assay [1] (100 mg/l soil); 19 in assay [4] (20 mg/l soil); 20 in assay [4] (40 mg/l soil); 20 in assay [4] (80 mg/l soil). Also, the “root evaluation (1-4)” value in assay [1] (25 mg/l soil), in assay [1] (50 mg/l soil), in assay [1] (100 mg/l soil), in assay [4] (20 mg/l soil), in assay [4] (40 mg/l soil) and in assay [4] (80 mg/l soil) was 4 throughout. Moreover, the “% activity” value in assay [2] (20 g active agent per 100 kg) amounted to 100%; in assay [2] (50 g active agent per 100 kg), 100%; in assay [3] (50 g active agent per 100 kg) it was 94%.

As to `S=C([S-])NCCNC(=S)[S-].[Mn+2]` [Manganese ethylene-1,2-bis-dithiocarbamate, reference compound], the “number of sound peas” value in assay [1] (25 mg/l soil) is recorded as 0; in assay [1] (50 mg/l soil), 0; in assay [1] (100 mg/l soil), 12; in assay [4] (20 mg/l soil) it was 1; in assay [4] (40 mg/l soil) it was 4; in assay [4] (80 mg/l soil), 11. Further, the “root evaluation (1-4)” value in assay [1] (25 mg/l soil), in assay [1] (50 mg/l soil), in assay [1] (100 mg/l soil), in assay [4] (20 mg/l soil), in assay [4] (40 mg/l soil) and in assay [4] (80 mg/l soil) was 1 each time.

In the case of `CCCCNC(=O)c1nnc(S(=O)(=O)CCC)s1` [5-propylsulfonyl-1,3,4-thiadiazole-2-carboxylic acid-butylamide], the “number of sound peas” value in assay [1] (25 mg/l soil) is 9; in assay [1] (50 mg/l soil), 16; in assay [1] (100 mg/l soil) it was 17. In addition, the “root evaluation (1-4)” value in assay [1] (25 mg/l soil) is 1; in assay [1] (50 mg/l soil), 3; in assay [1] (100 mg/l soil), 4. Moreover, the “% activity” value in assay [2] (10 g active agent per 100 kg) amounted to 99.2%; in assay [2] (20 g active agent per 100 kg) it was 99.7%; in assay [2] (50 g active agent per 100 kg) it was 100%.

Turning to `CCC[S+]([O-])c1nnc(C(=O)NC(C)C)s1` (centres unmarked) [5-propylsulfinyl-1,3,4-thiadiazole-2-carboxylic acid-isopropylamide], the “number of sound peas” value in assay [1] (25 mg/l soil) is listed as 9; in assay [1] (50 mg/l soil), 13; in assay [1] (100 mg/l soil), 16. For the same compound, the “root evaluation (1-4)” value worked out at 3 in assay [1] (25 mg/l soil), 4 in assay [1] (50 mg/l soil) and 4 in assay [1] (100 mg/l soil). Besides, the “% activity” value in assay [2] (20 g active agent per 100 kg), in assay [2] (50 g active agent per 100 kg) and in assay [3] (50 g active agent per 100 kg) was 100% each time.

Regarding `CCCS(=O)(=O)c1nnc(C(=O)NCCCCl)s1` [5-propylsulfonyl-1,3,4-thiadiazole-2-carboxylic acid-(3-chloropropyl)-amide], the “root evaluation (1-4)” value was determined as 1 in assay [4] (20 mg/l soil), 3 in assay [4] (40 mg/l soil) and 4 in assay [4] (80 mg/l soil). The figures for the “number of sound peas” value in assay [4] (20 mg/l soil), in assay [4] (40 mg/l soil) and in assay [4] (80 mg/l soil) were 10, 19 and 19, respectively.

Regarding `CCCCS(=O)(=O)c1nnc(C(=O)N2CCC2)s1` [5-butylsulfonyl-1,3,4-thiadiazole-2-carboxylic acid-N,N-trimethylenamide], the “number of sound peas” value is listed as 5 in assay [1] (25 mg/l soil), 13 in assay [1] (50 mg/l soil) and 18 in assay [1] (100 mg/l soil). In addition, the “root evaluation (1-4)” value in assay [1] (25 mg/l soil) amounted to 1; in assay [1] (50 mg/l soil) it was 2; in assay [1] (100 mg/l soil), 3. Further, the “% activity” value in assay [2] (50 g active agent per 100 kg) is reported as 100%.

On to `C=CCNC(=O)c1nnc([S+]([O-])CCC)s1` (centres unmarked) [5-propylsulfinyl-1,3,4-thiadiazole-2-carboxylic acid-allylamide], for which the “% activity” value in assay [2] (20 g active agent per 100 kg) was found to be 100%; in assay [2] (50 g active agent per 100 kg) it was 100%; in assay [3] (50 g active agent per 100 kg), 96%. Moreover, the entries for the “root evaluation (1-4)” value in assay [4] (20 mg/l soil), in assay [4] (40 mg/l soil) and in assay [4] (80 mg/l soil) were 2, 4 and 4, respectively. For the same compound, the “number of sound peas” value in assay [4] (20 mg/l soil) is given as 15; in assay [4] (40 mg/l soil), 19; in assay [4] (80 mg/l soil) it was 19.

With `CC(C)[S+]([O-])c1nnc(C(=O)NCC2CCCCC2)s1` (centres unmarked) [5-isopropylsulfinyl-1,3,4-thiadiazole-2-carboxylic acid-cyclohexylmethylamide], the “% activity” value in assay [2] (20 g active agent per 100 kg) is recorded as 99%; in assay [2] (50 g active agent per 100 kg), 100%.

For `CC(C)[S+]([O-])c1nnc(C(N)=O)s1` (centres unmarked) [5-isopropylsulfinyl-1,3,4-thiadiazole-2-carboxamide], the “% activity” value in assay [2] (50 g active agent per 100 kg) and in assay [3] (50 g active agent per 100 kg) was 100% throughout.

With `C[S+]([O-])c1nnc(C(N)=O)s1` (centres unmarked) [5-methylsulfinyl-1,3,4-thiadiazole-2-carboxamide], the entries for the “% activity” value in assay [2] (20 g active agent per 100 kg), in assay [2] (50 g active agent per 100 kg) and in assay [3] (50 g active agent per 100 kg) were 98%, 100% and 100%, respectively.

Take `COCCNC(=O)c1nnc(S(C)(=O)=O)s1` [5-methylsulfonyl-1,3,4-thiadiazole-2-carboxylic acid-(2-methoxyethyl)-amide]: the “% activity” value came to 93% in assay [2] (20 g active agent per 100 kg), 100% in assay [2] (50 g active agent per 100 kg), 92% in assay [3] (20 g active agent per 100 kg) and 100% in assay [3] (50 g active agent per 100 kg).

Consider `C[S+]([O-])c1nnc(C(=O)NCc2ccccc2Cl)s1` (centres unmarked) [5-methylsulfinyl-1,3,4-thiadiazole-2-carboxylic acid-(2-chlorobenzyleamide)], for which the results for the “number of sound peas” value in assay [1] (25 mg/l soil), in assay [1] (50 mg/l soil) and in assay [1] (100 mg/l soil) were 7, 11 and 18, respectively. In addition, the “root evaluation (1-4)” value came to 2 in assay [1] (25 mg/l soil), 3 in assay [1] (50 mg/l soil) and 4 in assay [1] (100 mg/l soil).

Values taken from US4281121A, “1,3,4-Thiadiazole-2-carboxylic acid derivatives, process for making the same and fungicidal and nematocidal compositions containing same” (Schering Aktiengesellschaft, priority 1978, dated 1981).
